In patent publication US8053581B2, “Trisubstituted thiazole compounds, preparations methods, pharmaceutical compositions and medicals uses thereof” (Institute of Pharmacology and Toxicology Academy of …, priority 2006, dated 2011) one finds inhibition, melting point and IC50 data, which are given here for 26 compounds.

The term inhibition denotes the share of the control response that was lost under treatment. A word on the melting point: it is the temperature, or range, at which the solid turns liquid. One may read the IC50 as the concentration needed to halve the response being measured. Read a high IC50 as weaker potency.

The structures appear in SMILES notation.

In one data set the target is T1, CETP (Homo sapiens, UniProt P11597).
T1 sequence (P11597 18-493): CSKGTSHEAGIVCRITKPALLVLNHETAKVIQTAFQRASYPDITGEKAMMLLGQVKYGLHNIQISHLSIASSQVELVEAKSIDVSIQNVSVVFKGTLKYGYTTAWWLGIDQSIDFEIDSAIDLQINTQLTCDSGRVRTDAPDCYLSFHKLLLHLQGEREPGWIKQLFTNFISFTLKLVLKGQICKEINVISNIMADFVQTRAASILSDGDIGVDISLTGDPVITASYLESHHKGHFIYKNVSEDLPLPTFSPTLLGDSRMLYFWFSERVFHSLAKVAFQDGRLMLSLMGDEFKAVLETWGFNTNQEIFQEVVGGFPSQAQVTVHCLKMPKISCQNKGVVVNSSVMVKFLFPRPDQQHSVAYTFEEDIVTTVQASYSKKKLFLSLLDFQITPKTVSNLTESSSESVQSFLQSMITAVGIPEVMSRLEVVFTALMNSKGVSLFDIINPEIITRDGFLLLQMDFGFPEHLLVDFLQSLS
As to the kind of experiment: Determination of CETP inhibition activity (fluorescent donor/acceptor transfer). It is filed as biochemical. The note with it: Concentration of compounds 500 μM; read-out: CETP inhibition activity Inhibition rate(%). As to the method: A mixture containing 3 μl of a donor, 9 μl of an acceptor (250 μg protein), 3 μl of CETP solution and 85 μl of an analytic buffer, 10 mM Tris, 0.15 M NaCl and 2 mM EDTA, pH 7.4 was incubated at 37° C. for 0.5 hours, the fluorescence intensity was determined on Victor 3 double illuminometer/fluorescence counter (Perkin Elmer) carrying […] light wave length.

A further data set concerns the target T2, PLTP (Homo sapiens, UniProt P55058).
T2 construct: from tissue
As to the kind of experiment: Determination of PLTP inhibition activity (radiolabelled phospholipid liposome to HDL transfer with plasma). The note with it: for inhibition at 150 µM: Concentration of compounds 150 μM; for inhibition at 150 µM / inhibition at 250 µM: read-out: PLTP inhibition activity Inhibition rate(%); for inhibition at 250 µM: Concentration of compounds 250 μM. It is filed as biochemical. As to the method:
30 μl (about 1000 cpm/μl) phospholipids liposome, 30 μl HDL ([…]), 337 μl TSE and 3 μl plasma were mixed, incubated in 37° C. water-bath for 1 hour, and then added 300 μl of a settling solution (50 ml solution preparation: 5.36 ml 5N NaCl, 9.075 ml 2M MnCl2 and 46 mg liver phospholipid were mixed, added water to 50 ml), the solution was stood at room temperature for 10 minutes, rotated at high speed for 10 minutes (to remove phospholipids liposome), 500 μl of the supernatant was sampled and counted. PLTP activity (cpm/h/3 μl)=sample cpm-background cpm.

T2 sequence (P55058 18-493, species assumed): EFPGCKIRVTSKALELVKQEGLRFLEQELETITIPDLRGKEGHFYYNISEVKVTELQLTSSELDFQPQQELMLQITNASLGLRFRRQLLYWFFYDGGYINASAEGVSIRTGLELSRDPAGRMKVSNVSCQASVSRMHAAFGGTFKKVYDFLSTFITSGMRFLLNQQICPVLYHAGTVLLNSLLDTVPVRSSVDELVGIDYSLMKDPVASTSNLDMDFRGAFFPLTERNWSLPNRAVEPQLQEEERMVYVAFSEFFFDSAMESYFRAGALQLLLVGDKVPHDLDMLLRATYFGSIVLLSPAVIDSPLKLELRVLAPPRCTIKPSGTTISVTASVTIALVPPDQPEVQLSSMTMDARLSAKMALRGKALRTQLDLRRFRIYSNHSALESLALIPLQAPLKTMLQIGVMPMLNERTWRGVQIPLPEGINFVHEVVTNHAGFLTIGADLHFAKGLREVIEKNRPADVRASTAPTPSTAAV

For the compound `O=C(Nc1nc(-c2ccc(O)cc2)c(Cc2ccccc2)s1)c1ccc(Cl)cc1` [Example 8, N-[5-benzyl-4-(4-hydroxy-phenyl)-thiazol-2-yl]-4-chloro-benzamide], the melting point is 109 to 110 °C. Further, the inhibition at 500 µM at CETP was 80.4%. Also, the inhibition at 150 µM at PLTP worked out at 0%.

Compound `O=C(Nc1nc(-c2ccc(O)cc2)c(Cc2ccccc2)s1)c1ccc(O)c(O)c1` [Example 19, N-[5-benzyl-4-(4-hydroxy-phenyl)-thiazol-2-yl]-3,4-dihydroxy-benzamide] showed a melting point of 240 to 241 °C. Moreover, at CETP, the inhibition at 500 µM came out at 19.4%. Moreover, on PLTP, the IC50 is 70 µM and the inhibition at 250 µM amounted to 79.8%.

The compound `COc1ccc(-c2nc(N)sc2Cc2ccc(F)cc2)cc1` [Example 21, 5-(4-fluoro-benzyl)-4-(4-methoxy-phenyl)-thiazol-2-ylamine] displayed a melting point of 199 to 201 °C. In addition, at CETP, the inhibition at 500 µM stood at 52.8%. For the same compound, the inhibition at 250 µM at PLTP was found to be 11.5%.

`O=C(Nc1nc(-c2ccc(F)cc2)c(Cc2ccc([N+](=O)[O-])cc2)s1)c1ccc(O)c(O)c1` [Example 31, N-[4-(4-fluoro-phenyl)-5-(4-nitro-benzyl)-thiazol-2-yl]-3,4-dihydroxy-benzamide] showed a melting point of 276 to 278 °C. Besides, the inhibition at 500 µM on CETP is 0%. On PLTP, the IC50 is 75 µM and the inhibition at 250 µM was found to be 100%.

For `O=C(Nc1nc(-c2ccccc2)c(Cc2ccc([N+](=O)[O-])cc2)s1)c1ccc(O)c(O)c1` [Example 32, 3,4-dihydroxy-N-[5-(4-nitro-benzyl)-4-phenyl-thiazol-2-yl]-benzamide], on CETP, the inhibition at 500 µM stood at 0%. In addition, on PLTP, the IC50 came out at 75 µM and the inhibition at 250 µM turned out to be 100%.

Compound `O=C(Nc1nc(-c2ccc(O)cc2)c(Cc2ccc(F)cc2)s1)c1ccc(O)c(O)c1` [Example 33, N-[5-(4-fluoro-benzyl)-4-(4-hydroxy-phenyl)-thiazol-2-yl]-3,4-dihydroxy-benzamide] returned a melting point of 154 to 155 °C. For the same compound, on CETP, the inhibition at 500 µM was determined as 9.2%. In addition, on PLTP, half-maximal inhibition (IC50) was put at 100 µM and the inhibition at 250 µM was 73.2%.

For `O=C(Nc1nc(-c2ccc(O)cc2)c(Cc2ccc([N+](=O)[O-])cc2)s1)c1ccc(O)c(O)c1` [Example 34, 3,4-dihydroxy-N-[4-(4-hydroxy-phenyl)-5-(4-nitro-benzyl)-thiazol-2-yl]-benzamide], the melting point was 195 to 196 °C. Besides, on CETP, the inhibition at 500 µM was 30.4%. Moreover, on PLTP, half-maximal inhibition (IC50) was put at 100 µM and the inhibition at 250 µM is 67.6%.

Turning to `O=C(Nc1nc(-c2ccc(O)cc2)c(Cc2ccccc2)s1)c1ccc(O)cc1O` [Example 38, N-[5-benzyl-4-(4-hydroxy-phenyl)-thiazol-2-yl]-2,4-dihydroxy-benzamide], the melting point lay in the range of 217 to 219 °C. For the same compound, the inhibition at 500 µM on CETP was 88%. Moreover, the inhibition at 150 µM at PLTP came out at 11.5%.

Turning to `COc1ccc(C(=O)Nc2nc(-c3ccc(O)cc3)c(Cc3ccccc3)s2)cc1` [Example 40, N-[5-benzyl-4-(4-hydroxy-phenyl)-thiazol-2-yl]-4-methoxy-benzamide], the melting point was 124 to 125 °C. Further, on CETP, the inhibition at 500 µM was 71.6%. The inhibition at 150 µM at PLTP stood at 0%.

Regarding `O=C(Nc1nc(-c2ccc(O)cc2)c(Cc2ccccc2)s1)c1cc(O)c(O)c(O)c1` [Example 41, N-[5-benzyl-4-(4-hydroxy-phenyl)-thiazol-2-yl]-3,4,5-trihydroxy-benzamide], the melting point fell in the range of 245 to 246 °C. Also, the inhibition at 500 µM on CETP amounted to 44.1%. In addition, at PLTP, the IC50 is 15 µM and the inhibition at 150 µM was determined as 89.4%.

With `COc1ccc(-c2nc(N)sc2CC2CCCCC2)cc1` [Example 47, 5-cyclohexylmethyl-4-(4-methoxy-phenyl)-thiazol-2-ylamine], the melting point is 118 to 119 °C. For the same compound, the inhibition at 500 µM on CETP amounted to 79.8%. Also, the inhibition at 150 µM on PLTP came out at 0%.

Take `O=C(Nc1nc(-c2ccc(O)cc2)c(CC2CCCCC2)s1)c1ccc(O)c(O)c1` [Example 49, N-[5-cyclohexylmethyl-4-(4-hydroxy-phenyl)-thiazol-2-yl]-3,4-dihydroxy-benzamide]: the melting point was 133 to 134 °C. Moreover, the inhibition at 500 µM at CETP was found to be 6%. Further, on PLTP, the IC50 amounted to 35 µM and the inhibition at 150 µM was 81.6%.

The compound `O=C(Nc1nc(-c2ccc(O)cc2)c(CC2CCCCC2)s1)c1cc(O)c(O)c(O)c1` [Example 51, N-[5-cyclohexylmethyl-4-(4-hydroxy-phenyl)-thiazol-2-yl]-3,4,5-trihydroxy-benzamide] yielded a melting point of 238 to 239 °C. Further, the inhibition at 500 µM on CETP is 20.9%. Also, on PLTP, the midpoint of inhibition, the IC50, lay at 18 µM and the inhibition at 250 µM turned out to be 100%.

Turning to `Cc1sc(NC(=O)c2cc(O)c(O)c(O)c2)nc1-c1ccc(O)cc1` [Example 55, 3,4,5-trihydroxy-N-[4-(4-hydroxy-phenyl)-5-methyl-thiazol-2-yl]-benzamide], the melting point is 262 to 263 °C. In addition, on CETP, the inhibition at 500 µM worked out at 85.9%. For the same compound, the inhibition at 250 µM at PLTP was 10.7%.

`Cc1sc(NC(=O)c2ccc(O)c(O)c2)nc1-c1ccc(O)cc1` [Example 56, 3,4-dihydroxy-N-[4-(4-hydroxy-phenyl)-5-methyl-thiazol-2-yl]-benzamide]: the inhibition at 500 µM at CETP came to 58.7%. For the same compound, at PLTP, 75 µM corresponded to half-maximal inhibition (IC50) and the inhibition at 250 µM was 71.9%.

Take `COc1ccc(-c2nc(N)sc2CCc2ccccc2)cc1` [Example 57, 4-(4-methoxy-phenyl)-5-phenylethyl-thiazol-2-ylamine]: the melting point fell in the range of 143 to 144 °C. In addition, at CETP, the inhibition at 500 µM was 75.8%. Besides, on PLTP, the inhibition at 250 µM is 24%.

On to `COc1ccc(-c2nc(NC(=O)c3ccc(OC)c(OC)c3)sc2CCc2ccccc2)cc1` [Example 58, 3,4-dimethoxy-N-[4-(4-methoxy-phenyl)-5-phenylethyl-thiazol-2-yl]-benzamide], for which the melting point was 74 to 75 °C.

In the case of `COc1ccc(-c2nc(NC(=O)c3cc(OC)c(OC)c(OC)c3)sc2CCc2ccccc2)cc1` [Example 59, 3,4,5-trimethoxy-N-[4-(4-methoxy-phenyl)-5-phenylethyl-thiazol-2-yl]-benzamide], the melting point lay in the range of 78 to 79 °C.

The compound `CCCCc1sc(NC(=O)c2ccc(OC)c(OC)c2)nc1-c1ccc(OC)cc1` [Example 63, N-[5-n-butyl-4-(4-methoxy-phenyl)-thiazol-2-yl]-3,4-dimethoxy-benzamide] gave a melting point of 150 to 151 °C.

The compound `CCCCc1sc(NC(=O)c2cc(OC)c(OC)c(OC)c2)nc1-c1ccc(OC)cc1` [Example 64, N-[5-n-butyl-4-(4-methoxy-phenyl)-thiazol-2-yl]-3,4,5-trimethoxy-benzamide] returned a melting point of 197 to 198 °C.

As to `COc1ccc(-c2nc(N(S(=O)(=O)c3ccc(C)cc3)S(=O)(=O)c3ccc(C)cc3)sc2Cc2ccccc2)cc1` [Example 67, N-[5-benzyl-4-(4-methoxy-phenyl)-thiazol-2-yl]-N-p-tolylsulfonyl-p-tolylsulfonamide], the melting point fell in the range of 182 to 183 °C.

`COc1ccc(-c2nc(NC(=O)CCc3ccc(OC)c(OC)c3)sc2Cc2ccccc2)cc1` [Example 68, N-[5-benzyl-4-(4-methoxy-phenyl)-thiazol-2-yl]-3-(3,4-dimethoxy-phenyl)-propanamide]: the melting point lay within 142 to 143 °C.

Turning to `COc1ccc(-c2nc(N(CCO)CCO)sc2Cc2ccccc2)cc1` [Example 73, 2-[[5-benzyl-4-(4-methoxy-phenyl)-thiazol-2-yl]-(2-hydroxy-ethyl)-amino]-ethanol], the melting point was in the range of 119 to 120 °C.

`Oc1ccc(-c2nc(N3CCNCC3)sc2Cc2ccccc2)cc1` [Example 75, 4-(5-benzyl-2-piperazin-4-yl-thiazol-4-yl)-phenol] showed a melting point of 222 to 223 °C.

Compound `OCCN(CCO)c1nc(-c2ccc(O)cc2)c(Cc2ccccc2)s1` [Example 76, 4-(5-benzyl-2-[bis-(2-hydroxy-ethyl)-amino]-thiazol-4-yl)-phenol] had a melting point of 167 to 168 °C.

As for `Oc1ccc(-c2nc(CCc3ccc(O)c(O)c3)sc2Cc2ccccc2)cc1` [Example 78, 4-{2-[5-benzyl-4-(4-hydroxy-phenyl)-thiazol-2-yl]-ethyl}-benzene-1,2-diol], the melting point lay within 177 to 178 °C.
